Measured values as given in patent EP4534528A1, “NOVEL SULFANONE DERIVATIVE OR PHARMACEUTICALLY ACCEPTABLE SALT THEREOF, AND USE THEREOF” (Korea Institute of Science and Technology, priority 2022, dated 2023).
Counter-ions that a name gives are not always drawn. Like-named read-outs stand apart in the source and are kept apart here.

Legend:
NO (nitric oxide) = NO (nitric oxide) inhibitory activity in LPS-treated BV-2 microglial cells; format: cell-based, mouse; conditions: for activity at 0.1 µM / activity at 1 µM / activity at 10 µM: Mus musculus; for activity at 0.1 µM: read-out: Amount of NO (% of control) 0.1 µM; for activity at 1 µM: read-out: Amount of NO (% of control) 1 µM; for activity at 10 µM: read-out: Amount of NO (% of control) 10 µM
[1] = not told; cited from earlier work
U2OS cells = conditions: known from the literature; cited from earlier work
[2] = background statement; cited from earlier work
Nrf2 = Nrf2 functional cell-based assay (DiscoveRx); conditions: U2OS cells, incubated for 6 hours, luminescence; read-out: Nrf2 activation EC50
in vitro = in vitro ADME, Human; conditions: for remaining at 0.5 h, 1 µM: human, pH 6.4, liver microsomes 0.5 mg/mL, 30 minutes at 37°C
[3] = Metabolic stability in liver microsomes; format: in vitro ADME; conditions: mouse, pH 6.4, 30 minutes at 37°C
[4] = Metabolic stability in liver microsomes; format: in vitro ADME; conditions: rat, pH 6.4, 30 minutes at 37°C
Experimental: Then, an NADPH regeneration system solution was added thereto and the mixed solution was incubated at 37°C for 30 minutes. […]

[5] = 10 µM compound, BV-2 cells, LPS 1 µg/ml, 24 hours

N=S(=O)(/C=C/c1ncccc1F)c1ccccc1Cl (stereo not drawn) [Compound 1-3, (E)-(2-chlorophenyl)(2-(3-fluoropyridin-2-yl)vinyl)(imino)-λ^6-sulfanone]
activity at 0.1 µM (NO (nitric oxide); BV-2, 24 h): 90.9%
activity at 1 µM (NO (nitric oxide); BV-2, 24 h): 51.4%
activity at 10 µM (NO (nitric oxide); BV-2, 24 h): < 3%

C[S+]([O-])CCCCN=C=S (stereo not drawn) [Sulforaphane, 1-isothiocyanato-4-methylsulfinylbutane]
blood-brain barrier permeability [1]: very low
concentrations at which high toxicity is exhibited (U2OS cells): ≥ 5 µM
time until it disappears when administered to the body [2]: ≤ 1 h
activity at 0.1 µM (NO (nitric oxide); 0.1 µM compound, BV-2 cells, LPS 1 µg/ml, 24 hours): 107%
activity at 1 µM (NO (nitric oxide); 1 µM compound, BV-2 cells, LPS 1 µg/ml, 24 hours): 79.9%
activity at 10 µM (NO (nitric oxide); [5]): 14.9%

COc1cccc(S(=N)(=O)/C=C/c2ncccc2F)c1 (stereo not drawn) [Compound 1-7, (E)-(2-(3-fluoropyridin-2-yl)vinyl)(imino)(3-methoxyphenyl)-λ^6-sulfanone]
activity at 10 µM (NO (nitric oxide); BV-2, 24 h): 1.48%

COc1ccccc1S(=O)(/C=C/c1ccccc1Cl)=NC#N (stereo not drawn) [Compound 1-57, (E)-N-((2-chlorostyryl)(2-methoxyphenyl)(oxo)-λ^6-sulfanylidene)cyanamide]
EC50 (Nrf2): 75 nM

C[Si](C)(C)N=S(=O)(/C=C/c1ccccc1Cl)c1ccncc1F (stereo not drawn) [Compound 1-46, (E)-(2-chlorostyryl)(3-fluoropyridin-4-yl)((trimethylsilyl)imino)-λ^6-sulfanone]
EC50 (Nrf2): 120 nM

(E)-(2-chlorophenyl)(imino)(2-(2,4,6-trichloropyrimidin-5-yl)vinyl)-λ^6-sulfanone [Compound 1-14]
Amount of NO (% of control) 10 µM (NO (nitric oxide); [5]): < 3.00 % of control
EC50 (Nrf2): 3280 nM

COc1ccc(S(=N)(=O)/C=C/c2ccccn2)cc1 (stereo not drawn) [Compound 1-2, (E)-imino(4-methoxyphenyl)(2-(pyridin-2-yl)vinyl)-λ^6-sulfanone]
amount of drug remaining after incubation with microsomes (in words) (in vitro; 30 minutes): remained at a high concentration
remaining at 0.5 h, 1 µM (in vitro): 76%
remaining at 0.5 h, 1 µM [3]: 59%

O=S(=O)(/C=C/c1ncccc1Cl)c1ccccc1Cl
remaining at 0.5 h, 1 µM (in vitro): 66%
remaining at 0.5 h, 1 µM [3]: 4.5%

O=S(=O)(/C=C/c1ncccc1Cl)c1ccccc1F
remaining at 0.5 h, 1 µM (in vitro): 72%
remaining at 0.5 h, 1 µM [4]: 23%
remaining at 0.5 h, 1 µM [3]: 19%

COC(=O)/C=C/C(=O)OC [DMF, Dimethyl fumarate]
EC50 (Nrf2): 4330 nM

N=S(=O)(/C=C/c1cccnc1)c1ccccc1Cl (stereo not drawn) [Compound 1-12, (E)-(2-chlorophenyl)(imino)(2-(pyridin-3-yl)vinyl)-λ^6-sulfanone]
activity at 10 µM (NO (nitric oxide); [5]): 24.8%
